Laboratory results as given in patent US3954777A, “Aminopropionyl derivatives of 2,3-diphenyl cyclopropylamine” (Zambon S.p.A., priority 1970, dated 1976).
Where a name gives a salt, the structure may show the parent alone. Read-outs that look alike come from different tables or passages of the source.

Key:
[1] = system: crisis produced with electroshock; experiment: Electroshock (M.E.S.), protection from extensor phase of hind paws; format: in vivo, male albine Swiss mice; conditions: Mus musculus
Method: (§1) The preferred method is that according to Schotten-Baumann. […] Preferably an excess of the same amine is used both as acid binding substance and as solvent. If the amine is a low-boiling one the reaction is carried out in a sealed tube while if the amine has a high-boiling point is preferred to operate at the boiling temperature of the reaction mixture. […] Materials and methods. The animals used in the tests, unless otherwise indicated, were male albine Swiss mice weighing 19-23 g; each animal has been used only once.
(§2) Electroshock (M.E.S.). The method followed in performing the electroshock is C. H. Cashin and J. Jackson's method (J.Pharm.Pharmacol.,1962, 14 (supl.) 445) modified as follows: the electrodes are placed in the outer ear which is, before the shock, filled with a physiological solution. The applied voltage is of 92 volts with a current of 50 Hz stabilized with Selonix H.T. 4420 stabilizer; duration of shock 0.2 seconds. […] (E. A. Swinyard, W. C. Brown; L. S. Goodman, J. Pharmacol., 1952, 106, 319) Schock by cardiazol (M.M.S.). 38 mg/kg of cardiazol, under the form of a 0.38% aqueous solution, is quickly injected in the dorsal vein of the mouse tail (L. S. Goodman, M. Singh Grewal, W. C. Brown, E. A. Swinyard, J. Pharmacol. 1953, 108, 168). The animals are considered as protected when the extensor phase of the hind paws is eliminated during the tonic crisis. The so obtained data have been elaborated by calculating the ED50 and the LD50 according to Lichtfield-Wilcoxon's method (J. Pharmacol. 1949, 96, 99).

[2] = system: crisis produced with cardiazol; experiment: Schock by cardiazol (M.M.S.), protection from extensor phase of hind paws; format: in vivo, male albine Swiss mice; conditions: Mus musculus
Method: as §1, §2

in vivo = conditions: mouse, ip
Method: as §1, §2

[3] = sc, 0.5 h, new compounds (Table 2), under skin, 30 minutes ante, as hydrochlorides, read-out: ED50 M.E.S.
[4] = sc, 0.5 h, new compounds (Table 2), under skin, 30 minutes ante, as hydrochlorides, cardiazol 38 mg/kg i.v., read-out: ED50 M.M.S.
[5] = sc, 0.5 h, read-out: M.M.S. ED50
[6] = sc, 0.5 h, reference compounds (Table 1), under skin, 30 minutes ante, cardiazol 38 mg/kg i.v., read-out: M.M.S. ED50
[7] = sc, 0.5 h, reference compounds (Table 1), under skin, 30 minutes ante, read-out: M.E.S.-ED50

Q: For `O=C(CCN1CCCC1)NC1[C@H](c2ccccc2)[C@H]1c1ccccc1` (relative stereo) [cis-trans (line b76)], which ED50 [1, 3] is on record?
A: Its ED50 is 24 mg/kg.

Q: What about the ED50 [2, 4] of the same compound?
A: The ED50 was 20 mg/kg.

Q: For `O=C(CCN1CCCCC1)NC1[C@H](c2ccccc2)[C@H]1c1ccccc1` (relative stereo) [cis-trans (line b79)], which ED50 [1, 3] is on record?
A: The ED50 was 16 mg/kg.

Q: What about the ED50 [2, 4] of the same compound?
A: The ED50 was 15 mg/kg.

Q: Which ED50 [1, 3] does the source give for `CN1CCN(CCC(=O)NC2[C@H](c3ccccc3)[C@H]2c2ccccc2)CC1` (relative stereo) [cis-trans (line b82)] here?
A: Its ED50 is 275 mg/kg.

Q: What does the source list for `CCN(CC)CCC(=O)NC1[C@H](c2ccccc2)[C@H]1c1ccccc1` (relative stereo) [cis-trans, R1 = C2 H5, R2 = C2 H5, N-(beta-diethylamino)propionyl-2,3 -cis,trans-diphenylcyclopropylamine]?
A: ED50 [1, 3]: 33.5 mg/kg; ED50 [2, 4]: 27 mg/kg; LD50 at 72 h (in vivo): 79 mg/kg

Q: Which ED50 [1, 3] does the source give for `CN(CCC(=O)NC1[C@H](c2ccccc2)[C@H]1c1ccccc1)Cc1ccccc1` (relative stereo) [cis-trans, R1 = CH3, R2 = CH2 --C6 H5, N-[beta-(N'-benzyl)methylamino]propionyl-2,3-cis,trans-diphenylcyclopropylamine hydrochloride] here?
A: Its ED50 is 91 mg/kg.

Q: What about the ED50 [2, 4] of the same compound?
A: The ED50 was 98 mg/kg.

Q: What does the source list for `CN(C)CCC(=O)NC1[C@H](c2ccccc2)[C@H]1c1ccccc1` (relative stereo) [cis-trans, R1 = CH3, R2 = CH3, N-(beta-dimethylamino)propionyl-2,3 -cis,trans-diphenylcyclopropylamine]?
A: ED50 [1, 3]: 21.8 mg/kg; ED50 [2, 4]: 16.5 mg/kg; LD50 at 72 h (in vivo): 88 mg/kg

Q: Which results are given for `CCNCCC(=O)NC1[C@H](c2ccccc2)[C@H]1c1ccccc1` (relative stereo) [cis-trans, R1 = H, R2 = C2 H5, N-(beta-ethylamino)propionyl- 2,3 -cis,trans-diphenylcyclopropylamine hydrochloride]?
A: ED50 [1, 3]: > 90 mg/kg; ED50 [2, 4]: > 90 mg/kg; LD50 at 72 h (in vivo): 89.5 mg/kg

Q: For `CNCCC(=O)NC1[C@H](c2ccccc2)[C@H]1c1ccccc1` (relative stereo) [cis-trans, R1 = H, R2 = CH3, N-(beta-methylamino)-propionyl-2,3 -cis,trans-diphenyl cyclopropylamine hydrochloride], which ED50 [1, 3] is on record?
A: The ED50 was over 120 mg/kg.

Q: And the ED50 [2, 4]?
A: Its ED50 is over 120 mg/kg.

Q: What about the LD50 at 72 h (in vivo) of the same compound?
A: The LD50 at 72 h was 120 mg/kg.

Q: Which results are given for `CCC1(c2ccccc2)C(=O)NC(=O)NC1=O` [Phenobarbital sodium salt, reference compound]?
A: ED50 ([1]; sc, 0.5 h, read-out: M.E.S.-ED50): 35 mg/kg; ED50 [2, 5]: 4.5 mg/kg; LD50 at 72 h (in vivo; in vivo): 182 mg/kg

Q: Which results are given for `CN(C)C(=O)Nc1ccccc1` [Phenurone, 1,1-dimethyl-3-phenyl-urea, reference compound]?
A: ED50 ([1]; po, 1 h, read-out: M.E.S.-ED50): 115 mg/kg; ED50 ([2]; po, 1 h, read-out: M.M.S. ED50): 50 mg/kg

Q: For `CN1C(=O)OC(C)(C)C1=O` [Trimethadione, reference compound], which ED50 [2, 5] is on record?
A: The ED50 was 175 mg/kg.

Q: For `CCC1(C)CC(=O)NC1=O` (centres unmarked) [ethosuximide, reference compound], which ED50 [2, 6] is on record?
A: Its ED50 is 50 mg/kg.

Q: With `Cc1ccccc1OCC(O)CO` (centres unmarked) [mephenesin, reference compound] as the compound, how does the ED50 [1, 7] read?
A: The ED50 was 245 mg/kg.

Q: And the ED50 [2, 6]?
A: Its ED50 is 180 mg/kg.

Q: Which ED50 [1, 7] does the source give for `O=C1NC(=O)C(c2ccccc2)(c2ccccc2)N1` [phenitoine sodium salt, reference compound] here?
A: Its ED50 is 15 mg/kg.

Q: What about the ED50 [2, 6] of the same compound?
A: The ED50 was 7.1 mg/kg.

Q: And the LD50 at 72 h (in vivo; in vivo)?
A: Its LD50 at 72 h is 120 mg/kg.

Q: For `CCC1(c2ccccc2)C(=O)NCNC1=O` [primidone, reference compound], which ED50 ([2]; po, reference compound (Table 1), per os, 6 hours ante, cardiazol 38 mg/kg i.v., read-out: M.M.S. ED50) is on record?
A: The ED50 was 5.2 mg/kg.
